Results reported in patent US5380759A, “Methyl N-[6-(3,4,5-trimethoxybenzloxy)imidazo[1,2-b]pyridazin-2-zyl]carbamate used to treat leukemia” (priority 1987, dated 1995).

Columns and labels:
[1] = system: P388 D1 cells; assay: P388 D1 colony-forming assay; type: cell-based; conditions: Mus musculus, P388D1; 24 h exposure, 14 days colony growth; read-out: IC50 colony formation
Method: B) P338D1 Colony-forming Assay
In this assay, cells from an in vitro-adapted line of the mouse lymphoid neoplasm, P388 are first exposed to serially diluted concentrations of test compound over a 24 hour period in culture. Thereafter, the ability of such treated cells to form discrete colonies over a 14 day period after resuspension in a semi-solid drug-free medium is determined.
Initially cells in log growth are plated into individual 25 cm^2 tissue culture flasks each containing a final volume of 5 mls of Hepes buffered RPMI 1640 culture medium supplemented with 10 percent foetal calf serum, antibiotics and test compound. All compounds are formulated initially at appropriate concentrations in DMSO, 25 microliters of which is then added to each flask. All compounds are evaluated at concentrations ranging serially in four fold decrements from a top concentration some four fold greater than that already known to inhibit the proliferation of these cells by about 80 to 90 percent in the primary proliferative assay.
After 24 hrs exposure to the test compound the cells are counted and a known number of live cells transferred to a 15 ml centrifuge tube to which 4 mls of a 0.25 percent low temperature gelling agarose solution in complete RPMI tissue culture medium is then added. After 13 days incubation at 37° C., 1 ml of 1% p-Iodonitrotetrazolium violet is added to the top of each tube and allowed to permeate through the agarose for a further 24 to 48 hrs. This dye is metabolised by living cells to produce an insoluble red crystalline product which facilitates counting of the colonies. Samples are taken from each tube and the number of colonies containing a minimum of 50 cells is determined. The concentration of compound necessary to inhibit colony formation by 50 percent relative to that of control cells incubated under identical conditions but in the absence of the test compound is determined.

[2] = system: WiDr human colon adenocarcinoma cells; assay: In vitro activity against human tumour cell line WiDr (proliferation); type: cell-based; conditions: 96 h, MTT, read-out: IC50
Method: (§1) Cells from the human tumour cell lines DLD-1, HCT-116, WiDr and A549 are exposed to serially diluted concentrations of test compounds over a 96 hour period in culture. The ability of such cells to proliferate over the test period is determined.
(§2) Cells in log growth are plated into 96 well multiwell tissue culture dishes in 100 μl/well of RPMI 1640 culture medium supplemented with 10% foetal calf serum, antibiotics and test compound. All compounds are formulated initially at appropriate concentrations in DMSO, the final concentrations in this solvent being twenty times that required in the plate. A final 1 in 10 dilution in complete medium is then made before adding 100 μl to each well of the plate. All compounds are evaluated at concentrations ranging serially in four fold decrements from a top concentration some four fold greater than that already known to inhibit the proliferation of cells from the mouse lymphoid neoplasm, P388D1 by about 80 to 90 percent in a primary proliferative assay.
(§3) After 96 hours the proliferation of cells exposed to test compound is compared with control untreated cells by one of two methods:
(§4) b) 20 μl of MTT (5 mg/ml in PBS) is added to each well. After an incubation period of 4 hours the medium from each well is aspirated and replaced with 200 μl DMSO to dissolve the formazan crystals formed. Absorbances are read by an ELISA plate spectrophotometer at a wavelength of 540 nm. The IC50 is defined as that concentration of drug which decreases absorbance to 50% of that in control (drug-free) cultures. This method is used for the WiDr, HCT-116 and A549 cell lines.

[3] = system: tubulin; assay: Turbidimetric assay of tubulin polymerisation; type: biochemical, horse; conditions: 37° C., increase in A350nm 10 min after lag phase; read-out: Total tubulin polymerisation IC50
Method: A) Tubulin Polymerisation Assay
1. Preparation of tubulin
All manipulations are performed at 4° C. unless otherwise specified. The horse brain is washed in ice-cold BBG buffer and superficial meninges and blood vessels removed. After weighing, cerebral cortices are chopped, homogenised in 75 ml BBG buffer/100 g brain, centrifuged at 6500 g for 15 min and after removal of […], re-centrifuged at 100,000 g for 75 min. The volume of the supernatant (Vml) is measured and V/10 ml 10 mM GTP (Li salt) in H2 O added. The mixture is incubated in sealed centrifuge tubes (30 min, 34° C.) in a shaking water bath to polymerise the tubulin. After polymerisation the tubes are balanced and centrifuged at 100,000 g, (1 h at 27° C.) in a pre-warmed rotor. The high-speed pellet is resuspended in V/4 ml BB buffer and the preparation stirred on ice for 30 min and centrifuged at 100,000 g (1 h at 4° C.) to remove the cold-stable microtubules. An equal volume of BB2G buffer is added to the supernatant which is frozen rapidly in 5 ml samples in plastic weighing dishes floated on a solid CO2 /ethanol slurry, and stored overnight at -80° C. After ca. 18 hours the frozen samples of tubulin are thawed, 10 mM GTP in H2 O added to give a final concentration of 1 mM, and the new volume (Wml), is measured. The polymerisation/depolymerisation cycle is repeated exactly as above but substituting W for V to give twice-cycled tubulin.
2. Turbidimetric Assay of Tubulin Polymerisation
Apparatus: recording spectrophotometer with a 6-position, thermostatted cuvette holder; full scale deflection=0.2 absorbance units.
In a 1 ml spectrophotometer cuvette are mixed 100 μl 10 mM GTP (Li salt) made up in BB buffer, 10 μl H2 O or DMSO-depending on selected drug solvent, BB buffer and tubulin preparation such that the final increase in A350nm is 0.15 units after 16 mins (approx. 100 μl of tubulin prep. or 2.5 mg protein) in a final volume of 1 ml at 37° C. All reagents are stored on ice.
Polymerisation is initiated by raising the temperature to 37° C. and the increase in A350nm of triplicate samples against a reference cuvette is recorded. The reference sample includes a similar incubation mixture either without tubulin or with the addition of 1 mM Ca^2+. The increase over initial A350nm 10 min after the completion of lag phase (control polymerisation is 80% complete within this time) is calculated and expressed as a percentage of the control value, for a range of drug concentrations. The drug concentration required to give a 50% change (IC50) in the control value is determined.

[4] = system: HCT-116 human colon carcinoma cells; assay: In vitro activity against human tumour cell line HCT-116 (proliferation); type: cell-based; conditions: HCT-116, 96 h, MTT, read-out: IC50
Method: as §1, §2, §3, §4

[5] = system: A549 human lung carcinoma cells; assay: In vitro activity against human tumour cell line A549 (proliferation); type: cell-based; conditions: A549, 96 h, MTT, read-out: IC50
Method: as §1, §2, §3, §4

[6] = system: DLD-1 human colon carcinoma cells; assay: In vitro activity against human tumour cell line DLD-1 (proliferation); type: cell-based; conditions: DLD-1, 96 h, methylene blue, read-out: IC50
Method: as §1, §2, §3
a) Culture supernatants are aspirated and cells fixed and stained by adding a solution of methylene blue (5 g per liter of 50% ethanol: water, 100 μl/well). After 30 minutes at room temperature unbound stain is washed off by immersing plates in water. Stained cells are solubilised overnight using 1% Sarkosyl (Sigma) in phosphate-buffered saline (100 μl/well). Absorbances are read by an ELISA plate spectrophotometer at a wavelength of 620 nm. The IC50 is defined as that concentration of drug which decreases absorbance to 50% of that in control (drug-free) cultures. This method is used for the DLD-1 cell line.

[7] = system: P388/O tumour; assay: Lymphocytic leukaemia P388/O test; type: in vivo, mouse; conditions: Mus musculus, P388, ip
Method: C. Lymphocytic Leukemia P388/O Test
(§5) CD2-F1 mice, of the same sex, weighing within a 3 gram range surrounding 20 g, are used for this test. Control and test animals are injected intraperitoneally with a suspension of 10^6 viable P388/O tumour cells on day 0. In each test several dose levels which bracket the LD20 for the compound are evaluated; each dose level group contains 6 animals. The test compounds are prepared either in physiologic saline containing 0.05% Tween 80 or distilled water containing 5% dextrose and are administered intraperitoneally on days 1,5 and 9 relative to tumour implant. Doses are on a mg/kg basis according to individual animals' body weights. The day of death for each animal is recorded and the median day of death identified for each group. The difference between the median survival time for treated and control groups is expressed as a percentage increase in life span (% ILS).

[8] = LD20 (Mouse); type: in vivo; conditions: i.p. days 1, 5 and 9, CD2-F1 mice, observed up to 14 days
[9] = system: P388/MTX; assay: In vivo activity against drug resistant tumour P388/MTX; parameters: species or system mouse; conditions: optimum dose 3.0 mg/kg
Method: as §5
(§6) E. Activity Against Drug-Resistant Tumours
(§7) Using a similar procedure to the Lymphocytic Leukaemia P388/O test, the compound of Example 1 was evaluated against P388/O tumours which had been made resistant to the following standard, clinically used anti-tumour agents: […]

[10] = system: microtubule function; conditions: cited from earlier work
[11] = system: P388/VCR; assay: In vivo activity against drug resistant tumour P388/VCR; parameters: species or system mouse; conditions: optimum dose 1.5 mg/kg
Method: as §5, §6, §7

## CCOC(=O)Nc1cn2nc(OCc3cc(OC)c(OC)c(OC)c3)ccc2n1 [Example 7, Ethyl N-[6-(3,4,5-trimethoxybenzyloxy)imidazo[1,2-b]pyridazin-2-yl]carbamate]
[1]
  IC50: 6.34 nM
[2]
  IC50: 19.7 nM
[3]
  IC50: 520 nM
[4]
  IC50: 8.25 nM
[5]
  IC50: 22.4 nM
[6]
  IC50: 5.92 nM
[7]; 5 mg/kg i.p. days 1, 5 and 9
  ILS at 5 mg/kg: 111%
[8]
  LD50: 15 mg/kg

## COCCOC(=O)Nc1cn2nc(OCc3cc(OC)c(OC)c(OC)c3)ccc2n1 [Example 8, 2-Methoxyethyl N-[6-(3,4,5-trimethoxybenzyloxy)imidazo[1,2-b]pyridazin-2-yl]carbamate]
[1]
  IC50: 2.93 nM
[2]
  IC50: 41 nM
[3]
  IC50: 230 nM
[4]
  IC50: 20.5 nM
[5]
  IC50: 39 nM
[6]
  IC50: 8.82 nM
[7]; 10 mg/kg i.p. days 1, 5 and 9
  ILS at 10 mg/kg: 44%
[8]
  LD50: 15 mg/kg

## CN(Cc1cnc2nc(N)nc(N)c2n1)c1ccc(C(=O)N[C@@H](CCC(=O)O)C(=O)O)cc1 [MTX, methotrexate, reference compound]
[9]
  60 Day Survivors: 0/6
  % ILS: +15%

## CCOC(=O)Nc1cc2c(c(N)n1)N=C(CN(C)c1ccccc1)CN2 [NSC-181928]
[10]
  microtubule inhibitory activity: microtubule inhibitory activity

## CC[C@]1(O)C[C@H]2CN(CCc3c([nH]c4ccccc34)[C@@](C(=O)OC)(c3cc4c(cc3OC)N(C=O)[C@H]3[C@@](O)(C(=O)OC)[C@H](OC(C)=O)[C@]5(CC)C=CCN6CC[C@]43[C@@H]65)C2)C1 [VCR, Vincristine, reference compound]
[10]
  microtubule inhibitory activity: inhibitor of microtubule function
[11]
  60 Day Survivors: 0/6
  % ILS: +36%

## COC(=O)Nc1nc2ccc(C(=O)c3cccs3)cc2[nH]1 [nocodazole]
[10]
  microtubule inhibitory activity: microtubule inhibitory activity

## CCOC(=O)Nc1ccc(SCC2COC(Cn3ccnc3)(c3ccc(Cl)cc3Cl)O2)cc1 (stereo not drawn) [tubulazole]
[10]
  microtubule inhibitory activity: microtubule inhibitory activity
